{
  "source": "patent US20220062431A1",
  "about": "“COMPOUNDS COMPRISING STAPLED OR STITCHED PEPTIDES FOR IMPROVED DRUG DELIVERY” (Sutura Therapeutics Ltd, priority 2017, published 2022)",
  "key": {"[1]": {"test_system": "HeLa pLuc 705 cells", "assay": "% viable cells judged by gated cells compared to negative controls (flow cytometry)", "type": "cell-based", "method": "(§1) HeLa pLuc705 cells were cultured in high glucose DMEM supplemented with 10% foetal calf serum (Sigma, UK) at 37° C. under an 8% CO2/92% air atmosphere.\n(§2) HeLa pLuc705 cells were setup in 96 well plates with the appropriate dilutions of test compounds either FITC labeled peptides or FITC labeled PMO conjugates diluted into complete culture media (up to 100 µM). Cells were then then trypsinised, diluted to 4×10^5 cells per mL and 100 μL added to each well giving a final volume of 200 μL in each well. Cells were then incubated for either 4 or 24 hours at either 4 or 37° c.\n(§3) Uptake of fluorescently-labelled PMO and peptides was determined by flow cytometry using an Accuri C6 flow cytometer. Cells were washed with PBS and glycine buffer then released with trypsin, and kept on ice before analysis in PBS containing 2.5% FBS. Cell fluorescence in single live cells was determined using FlowJo software after appropriate gating. Untreated cells were used to establish gating settings for the determination of the % fluorescein-positive cells, mean fluorescent intensity (MFI) was also calculated. Uptake was determined by gating cells that were able exclude cell-impermanent die (To-pro-3) indicating the ability of cells to retain membrane integrity."}, "[2]": {"test_system": "HeLa pLuc 705 cells", "assay": "Flow cytometry uptake of FITC labeled CPAs (FL1+ cells, MFI)", "type": "cell-based", "details": "4 hours; for number of FL1 positive cells, cyclized vs non-cyclised (NC) peptide: cyclised peptide compared to its non-cyclised control", "method": "as §1, §2, §3"}},
  "note": "“Also recorded” adds a separate entry of the source. Positions of bridges follow the written chain, without caps; N, C: chain ends. Non-standard residues stand in square brackets, D forms with d. Residues, ends and D or L forms follow the SMILES beside them. *: point of attachment. FITC = O=C1OC2(c3ccc(O)cc3Oc3cc(O)ccc32)c2ccc(NC(=S)*)cc21; PEG6 = NCCOCCOCCOCCOCCOCCOCCC(=O)O; S5 = C=CCCC[C@](C)(N)C(=O)O",
  "data": [
    {"smiles": "CC[C@H](C)[C@H](NC(=O)CCOCCOCCOCCOCCOCCOCCNC(=S)Nc1ccc2c(c1)C(=O)OC21c2ccc(O)cc2Oc2cc(O)ccc21)C(=O)N[C@H](C(=O)N[C@@H](Cc1ccccc1)C(=O)N[C@@]1(C)CCCC=CCCC[C@@](C)(C(N)=O)NC(=O)[C@H](Cc2ccccc2)NC(=O)[C@H](CC(C)C)NC(=O)[C@H]([C@@H](C)CC)NC1=O)[C@@H](C)CC", "note": "[RCM1,5-P8M-FITC-0+] ({FITC-PEG6}-IIF[S5]ILF[S5]-NH2; staple 4-8)", "values": [
      {"measurement": "viable cells over RCM1,5-CP8M-FITC-3+ and RCM1,5-CP8M-FITC-2+", "setting": "[1]; 0.05 μM, 4 hours", "result": "increase"},
      {"measurement": "MFI compared between RCM1,5 charge variants", "setting": "[2]; at a given concentration, increase for 3+ at higher concentrations >1 μM", "result": "no significant difference"},
      {"measurement": "FL1+ cells compared to other RCM1,5 charge variants", "setting": "[2]; over a range of concentrations", "result": "increase"}
    ]},
    {"smiles": "CC(C)C[C@@H]1NC(=O)[C@H](CCCNC(=N)N)NC(=O)[C@@H](NC(=O)[C@H](Cc2ccccc2)NC(=O)[C@H](CCCCN)NC(=O)[C@H](CCCNC(=N)N)NC(=O)CCOCCOCCOCCOCCOCCOCCNC(=S)Nc2ccc3c(c2)C(=O)OC32c3ccc(O)cc3Oc3cc(O)ccc32)CCC(=O)NCCCC[C@@H](C(N)=O)NC(=O)[C@H](Cc2ccccc2)NC1=O", "note": "[K1E5-P8M-FITC] ({FITC-PEG6}-RKFERLFK-NH2; lactam 4-8; N-terminus assumed)", "values": [
      {"measurement": "% cell viability compared to RCM1,5-P8M-FITC-3+", "setting": "[1]; 4 hours, all concentrations", "result": "increase"},
      {"measurement": "% of cells recovered when normalized to untreated controls (% viable cells)", "setting": "[1]; 4 hours, cyclised versus non-cyclised peptide", "result": "no significant difference"},
      {"measurement": "cellular toxicity / impact on cell viability", "setting": "[1]; all concentrations 0.05 to 100 μM, listed as K1E5-CP8M-FITC", "result": "no adverse cellular toxicity; also recorded: do not have any negative impact"},
      {"measurement": "increase in viability comparing RCM1,5-P8M-FITC to K1E5-P8M-FITC", "setting": "[1]; over the range of concentrations (0.05 to 100 μM)", "result": "70-99%"},
      {"measurement": "MFI, cyclised vs non-cyclised (NC) peptide", "setting": "[2]; 2 way ANOVA", "result": "no interaction affect"},
      {"measurement": "number of FL1 positive cells, cyclized vs non-cyclised (NC) peptide", "setting": "[2]; 2 way ANOVA", "result": "no significant difference"},
      {"measurement": "number of FL1 positive cells, cyclized vs non-cyclised (NC) peptide", "setting": "[2]; 2 way ANOVA, listed as K1E5-CP8M-FITC", "result": "no difference"}
    ]}
  ]
}
